According to patent publication US8575163B2, “Pyrrolopyridinylpyrimidin-2-ylamine derivatives” (Merck Patent GmbH, priority 2009, dated 2013):

Columns and labels:
PDK1 = molecular target: T1, PDK1 (Homo sapiens, UniProt O15530); test: Test for the inhibition of PDK1 (flashplate, 33P-ATP); assay type: biochemical; settings: His6-PDK1 3.4 nM, 4 μM ATP, 30° C., 60 min
T1 construct: His6 (N)
T1 sequence (O15530 51-556 limits assumed): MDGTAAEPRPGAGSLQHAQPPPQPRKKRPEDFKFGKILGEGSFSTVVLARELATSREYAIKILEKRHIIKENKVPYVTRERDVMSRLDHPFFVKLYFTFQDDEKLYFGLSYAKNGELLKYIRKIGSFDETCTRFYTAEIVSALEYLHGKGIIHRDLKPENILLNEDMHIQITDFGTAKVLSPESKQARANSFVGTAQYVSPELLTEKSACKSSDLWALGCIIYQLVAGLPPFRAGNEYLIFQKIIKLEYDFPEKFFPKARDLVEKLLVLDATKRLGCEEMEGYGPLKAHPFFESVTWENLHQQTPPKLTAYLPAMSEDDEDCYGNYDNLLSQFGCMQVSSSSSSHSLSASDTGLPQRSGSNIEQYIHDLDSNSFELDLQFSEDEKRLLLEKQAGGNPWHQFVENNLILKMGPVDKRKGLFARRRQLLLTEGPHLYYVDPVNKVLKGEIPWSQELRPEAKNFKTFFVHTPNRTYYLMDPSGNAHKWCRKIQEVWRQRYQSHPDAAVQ
Summary of the method: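 His6-PDK1(1-50) (3.4 nM) and a biotinylated peptide substrate (400 nM) were incubated 60 min at 30° C with 4 μM ATP containing ^33P-ATP and test compound. Incorporated radioactivity was counted after subtracting a 100 nM staurosporine blank and expressed as % of control; IC50 derived from these.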

[1] = system: PDK1 kinase activity (phospho-T308-PKB) in PC3 cells; test: Cellular testing of PDK1 kinase inhibitors in PC3 cells (Luminex, phospho-T308-PKB); assay type: cell-based; settings: Homo sapiens, PC-3, 0.5 h, 30 min incubation, serum-free, read-out: IC50 PC3 cells [P-PKB T308]
Experimental: Method for the Cellular Testing of PDK1 Kinase Inhibitors in PC3 Cells.
The cellular assay for the determination of the PDK1 kinase activity is carried out as a Luminex assay in the 96-well format. PC3 cells are shown at 20,000 cells per well in 100 μl of medium (45% of […]/45% of Ham's F12/10% of FCS) and incubated on the following day for 30 min with a serial dilution of the test substance (7 concentrations) under serum-free conditions. The cells are subsequently lysed using 90 μl of lysis buffer (20 mM tris/HCl pH 8.0, 150 mM NaCl, 1% of NP40, 10% of glycerol, 1% of phosphatase inhibitor I, 1% of phosphatase inhibitor II, 0.1% of protease inhibitor cocktail III, 0.01% of benzonase) per well, and the lysates are separated off from insoluble cell constituents by means of centrifugation through a 96-well filter plate (0.65 μm). The lysates are incubated overnight at 4° C. with shaking with Luminex beads to which an anti-total PKB antibody is coupled. The detection is carried out on the following day by addition of a phospho-T308-PKB antibody and a species-specific peroxidase-labelled secondary antibody. The detection of phospho-T308-PKB is carried out by measurement in a Luminex100 instrument by determination of 100 events per cavity in a measurement time of 60 sec. As pharmacological blank, the signals obtained from cells which have been treated with 10 μM staurosporin are subtracted from all other batches. The control value used for maximum phosphorylation of PKB on T308 are the signals from cells which have only been treated with the solvent (0.3% of DMSO). The values of the batches treated with test substance are calculated therefrom as percentage of control, and IC50 values are determined by means of RS1.

| SMILES | IC50 (PDK1) [nM] | IC50 [1] [nM] |
| --- | --- | --- |
| CCC(O)(c1ccncc1)c1cc(-c2c[nH]c3ncc(-c4cn[nH]c4)cc23)nc(N)n1 (stereo not shown) [A53, 1-{2-amino-6-[5-(1H-pyrazol-4-yl)-1H-pyrrolo[2,3-b]pyridin-3-yl]pyrimidin-4-yl}-1-pyridin-4-ylpropan-1-ol] | 1.9 | 692 |
| Cn1cc(-c2cnc3[nH]cc(-c4cc(C(O)(c5ccccc5)C(F)(F)F)nc(N)n4)c3c2)cn1 (stereo not shown) [A69, 1-{2-amino-6-[5-(1-methyl-1H-pyrazol-4-yl)-1H-pyrrolo[2,3-b]pyridin-3-yl]-pyrimidin-4-yl}-2,2,2-trifluoro-1-phenylethanol] | 150 | 240 |
| Cn1cc(-c2cnc3[nH]cc(-c4cc(C(C)(O)c5cccc(F)c5)nc(N)n4)c3c2)cn1 (stereo not shown) [A105, 1-{2-amino-6-[5-(1-methyl-1H-pyrazol-4-yl)-1H-pyrrolo[2,3-b]pyridin-3-yl]-pyrimidin-4-yl}-1-(3-fluorophenyl)ethanol] | 13 | 110 |
| Cn1cc(-c2cnc3[nH]cc(-c4cc(C(C)(O)c5cccc(F)c5)nc(N)n4)c3c2F)cn1 (stereo not shown) [A106, 1-{2-amino-6-[4-fluoro-5-(1-methyl-1H-pyrazol-4-yl)-1H-pyrrolo-[2,3-b]pyridin-3-yl]pyrimidin-4-yl}-1-(3-fluorophenyl)ethanol] | 26 | 5.1 |
| CCC(O)(c1cc[n+]([O-])cc1)c1cc(-c2c[nH]c3ncc(-c4cnn(C)c4)cc23)nc(N)n1 (stereo not shown) [A110, 1-{2-amino-6-[5-(1-methyl-1H-pyrazol-4-yl)-1H-pyrrolo[2,3-b]pyridin-3-yl]-pyrimidin-4-yl}-1-(1-oxypyridin-4-yl)propan-1-ol] | 5.4 | 8200 |
| COc1ccc(C(C)(O)c2cc(-c3c[nH]c4ncc(-c5cnn(C)c5)cc34)nc(N)n2)cn1 (stereo not shown) [A112, 1-{2-amino-6-[5-(1-methyl-1H-pyrazol-4-yl)-1H-pyrrolo[2,3-b]pyridin-3-yl]-pyrimidin-4-yl}-1-(6-methoxypyridin-3-yl)ethanol] | 120 | 1300 |

Now from value to molecule:

| IC50 (PDK1) [nM] | IC50 [1] [nM] | SMILES |
| --- | --- | --- |
| 31 | 7300 | Cn1cc(-c2cnc3[nH]cc(-c4cc(C(C)(O)c5ccncn5)nc(N)n4)c3c2)cn1 (stereo not shown) [A113, 1-{2-amino-6-[5-(1-methyl-1H-pyrazol-4-yl)-1H-pyrrolo[2,3-b]pyridin-3-yl]-pyrimidin-4-yl}-1-pyrimidin-4-ylethanol] |
| 39 | 14 | CC(C)n1cc(-c2cnc3[nH]cc(-c4cc(C(C)(O)c5cccc(F)c5F)nc(N)n4)c3c2)cn1 (stereo not shown) [A114, 1-{2-amino-6-[5-(1-isopropyl-1H-pyrazol-4-yl)-1H-pyrrolo[2,3-b]pyridin-3-yl]-pyrimidin-4-yl}-1-(2,3-difluorophenyl)ethanol] |
| 56 | 110 | CC(C)C(O)(c1cccc(F)c1)c1cc(-c2c[nH]c3ncc(-c4cnn(C)c4)cc23)nc(N)n1 (stereo not shown) [A115, 1-{2-amino-6-[5-(1-methyl-1H-pyrazol-4-yl)-1H-pyrrolo[2,3-b]pyridin-3-yl]-pyrimidin-4-yl}-1-(3-fluorophenyl)-2-methylpropan-1-ol] |
| 44 | 280 | CCCC(O)(c1cccc(F)c1)c1cc(-c2c[nH]c3ncc(-c4cnn(C)c4)cc23)nc(N)n1 (stereo not shown) [A116, 1-{2-amino-6-[5-(1-methyl-1H-pyrazol-4-yl)-1H-pyrrolo[2,3-b]pyridin-3-yl]-pyrimidin-4-yl}-1-(3-fluorophenyl)butan-1-ol] |
| 450 | 980 | CCCC(OCOC)(c1cccc(F)c1)c1cc(-c2c[nH]c3ncc(-c4cnn(C)c4)cc23)nc(N)n1 (stereo not shown) [A117, 4-[1-(3-fluorophenyl)-1-methoxymethoxybutyl]-6-[5-(1-methyl-1H-pyrazol-4-yl)-1H-pyrrolo[2,3-b]pyridin-3-yl]pyrimidin-2-ylamine] |
| 29 | 240 | CCCC(O)(c1cc(-c2c[nH]c3ncc(-c4cnn(C)c4)cc23)nc(N)n1)c1ccccc1F (stereo not shown) [A118, 1-{2-amino-6-[5-(1-methyl-1H-pyrazol-4-yl)-1H-pyrrolo[2,3-b]pyridin-3-yl]-pyrimidin-4-yl}-1-(2-fluorophenyl)butan-1-ol] |
| 36 | 470 | COCOC(C)(c1cc(-c2c[nH]c3ncc(-c4cnn(C)c4)cc23)nc(N)n1)c1ccccc1F (stereo not shown) [A119, 4-[1-(2-fluorophenyl)-1-methoxymethoxyethyl]-6-[5-(1-methyl-1H-pyrazol-4-yl)-1H-pyrrolo[2,3-b]pyridin-3-yl]pyrimidin-2-ylamine] |
| 250 | 1100 | CC(O)(c1cccc(F)c1)c1cc(-c2c[nH]c3ncc(-c4cnn(C(C)(C)C)c4)cc23)nc(N)n1 (stereo not shown) [A120, 1-{2-amino-6-[5-(1-tert-butyl-1H-pyrazol-4-yl)-1H-pyrrolo[2,3-b]pyridin-3-yl]-pyrimidin-4-yl}-1-(3-fluorophenyl)ethanol] |
